Reference: PMC7114128 (Antiviral Research, 2009)
Like-named read-outs stand apart in the source and are kept apart here.

How the values were obtained:
[1] = in vitro; settings: human
[2] = tested on: wtSARS-CoV strain PUMC01 F5; format: cell-based, SARS-CoV
[3] = tested on: HIV/SARS-CoV S pseudovirus; assay: organism not typed; settings: HepG2
[4] = tested on: HIV/SARS-CoV S pseudovirus
[5] = tested on: TfR; format: cell-based
[6] = tested on: ACE2; format: cell-based, human
[7] = tested on: HepG2 cells
[8] = tested on: CD59; format: cell-based

Compound: O=C(O)C=Cc1ccccc1O [2-Hydroxycinnamic acid]
- CC50 [1]: 2.5 ± 0.122 mM
- Anti-SARS-CoV activity in wtSARS-CoV infection [2]: did not show any anti-SARS-CoV activities
- IC50 [3]: 0.3 ± 0.013 mM

Compound: OCCc1ccccc1 [2-Phenylethanol (phenethy alcohol), 2-Phenylethanol]
- CC50 [1]: 24.5 ± 1.53 mM
- Anti-SARS-CoV activity in wtSARS-CoV infection [2]: did not show any anti-SARS-CoV activities
- IC50 [3]: 4.1 ± 0.199 mM

Compound: CC(=O)c1ccccc1O [2′-Hydroxyacetophenone]
- CC50 [1]: 1.8 ± 0.071 mM
- SI (CC50/IC50) [4]: 1
- IC50 [3]: 1.8 ± 0.102 mM

Compound: COc1ccc(C=CC(=O)O)cc1OC [3,4-Dimethoxycinnamic acid]
- CC50 [1]: 10 ± 0.62 mM
- SI (CC50/IC50) [4]: 2
- IC50 [3]: 5 ± 0.233 mM

Compound: C=CCc1ccc(OC)cc1 [4-Allylanisole]
- CC50 [1]: 8 ± 0.563 mM
- IC50 [3]: 8.4 ± 0.65 mM

Compound: COc1cc(C=CC=O)ccc1O [4-Hydroxy-3-methoxy cinnamaldehyde]
- CC50 [1]: 0.7 ± 0.043 mM
- SI (CC50/IC50) [4]: 2.3
- IC50 [3]: 0.3 ± 0.013 mM

Compound: COc1cc(C=CC(=O)O)ccc1O [4-Hydroxy-3-methoxycinnamic acid]
- CC50 [1]: 10 ± 0.555 mM
- SI (CC50/IC50) [4]: 2
- IC50 [3]: 5 ± 0.312 mM

Compound: O=c1cc(O)c2ccccc2o1 [4-Hydroxycoumarin]
- CC50 [1]: 10.3 ± 0.66 mM
- SI (CC50/IC50) [4]: 1
- IC50 [3]: 10.3 ± 0.5 mM

Compound: O=c1ccc2ccc(O)cc2o1 [7-Hydroxycoumarin]
- CC50 [1]: 10.7 ± 0.56 mM
- SI (CC50/IC50) [4]: 4.3
- IC50 [3]: 2.5 ± 0.172 mM

Compound: Oc1cc(O)c2c(c1)O[C@@]1(c3ccc(O)c(O)c3)Oc3cc(O)c4c(c3[C@@H]2[C@H]1O)O[C@H](c1ccc(O)c(O)c1)[C@H](O)[C@H]4c1c(O)cc(O)c2c1O[C@H](c1ccc(O)c(O)c1)[C@H](O)C2 [Cinnamtannin B1]
- CC50 [1]: 0.242 ± 0.0148 mM
- Effect on TfR expression [5]: up-regulated
- ACE2 expression versus untreated control (positive percentages and MFI) [6]: no significant difference
- IC50 with virus pretreated (1 h) compared with drug added simultaneously (0 h) [2]: not different
- IC50 [3]: 0.0329 ± 0.0028 mM

Compound: CC(=O)OC/C=C/c1ccccc1 [Cinnamylacetate]
- IC50 [4]: 7.1 ± 0.35 mM
- SI (CC50/IC50) [4]: 1
- CC50 [7]: 7.1 ± 0.42 mM

Compound: CCOC(=O)/C=C/c1ccccc1 [Ethylcinnamate]
- CC50 [1]: 14.1 ± 1.22 mM
- SI (CC50/IC50) [4]: 2.0
- IC50 [3]: 7.1 ± 0.532 mM

Compound: C=CC(C)(C)c1cc(/C=C/C(=O)c2ccc(O)cc2)c(OC)cc1O [Licochalcone-A]
- IC50 [4]: 0.03 ± 0.003 mM
- SI (CC50/IC50) [4]: 1
- CC50 [7]: 0.03 ± 0.001 mM

Compound: Oc1cc(O)c2c(c1)O[C@H](c1ccc(O)c(O)c1)[C@H](O)[C@H]2c1c(O)cc(O)c2c1O[C@H](c1ccc(O)c(O)c1)[C@@H](O)C2 [Procyanidin B1]
- CC50 [1]: 0.656 ± 0.0367 mM
- Effect on TfR expression [5]: did not affect
- ACE2 expression versus untreated control (positive percentages and MFI) [6]: no significant difference
- Effect on CD59 expression [8]: did not affect
- IC50 with virus pretreated (1 h) compared with drug added simultaneously (0 h) [2]: not different
- IC50 [3]: 0.161 ± 0.0203 mM

Compound: O=C/C=C/c1ccccc1 [Trans-cinnamaldehyde]
- CC50 [1]: 0.2 ± 0.014 mM
- SI (CC50/IC50) [4]: 1
- IC50 [3]: 0.2 ± 0.016 mM

Compound: O=C(O)/C=C/c1ccccc1 [Trans-cinnamic acid]
- IC50 [4]: 3 ± 0.178 mM
- CC50 [7]: 22.4 ± 1.23 mM
- Anti-SARS-CoV activity in wtSARS-CoV infection [2]: did not show any anti-SARS-CoV activities

Compound: Cc1ccc(C(C)C)cc1 [p-Cymene]
- CC50 [1]: 75 ± 4.35 mM
- SI (CC50/IC50) [4]: 1
- IC50 [3]: 75 ± 5.55 mM

Compound: Oc1cc(O)c2c(c1)O[C@H](c1ccc(O)c(O)c1)[C@H](O)[C@H]2c1c(O)cc(O)c2c1O[C@H](c1ccc(O)c(O)c1)[C@H](O)C2 [procyanidins B2, procyanidin B2]
- Effect on TfR expression [5]: nor up-regulate
- Anti-SARS-CoV activity in wtSARS-CoV infection [2]: did not inhibit

Compound: Isoeugenol
- IC50 [4]: 2 ± 0.142 mM
